Read-outs that look alike come from different tables or passages of the source.
Tests used:
HepG2 = test: In vitro cytotoxicity, IC50 by MTT method, HepG2; type: cell-based, human; conditions: Homo sapiens; HepG2 cell strain; read-out: IC50 HepG2
Procedure, shortened: (§1)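 Cells in RPMI1640 with 10% FBS at 37° C, 5% CO2 were seeded at 10^5/ml and exposed to a compound concentration gradient for 48 h, at least three replicates, solvent controls.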

PLA-801 = test: In vitro cytotoxicity, IC50 by MTT method, PLA-801; type: cell-based; conditions: PLA-801 cell strain; read-out: IC50 PLA-801
Procedure, shortened: as §1

Bel-7402 = test: In vitro cytotoxicity, IC50 by MTT method, Bel-7402; type: cell-based; conditions: Homo sapiens, Bel-7402; Bel7402 cell strain; read-out: IC50 Bel7402
Procedure, shortened: as §1

BGC-823 = test: In vitro cytotoxicity, IC50 by MTT method, BGC-823; type: cell-based; conditions: Homo sapiens, BGC-823; BGC823 cell strain; read-out: IC50 BGC823
Procedure, shortened: as §1

Hela = test: In vitro cytotoxicity, IC50 by MTT method, Hela; type: cell-based; conditions: Homo sapiens; Hela cell strain; read-out: IC50 Hela
Procedure, shortened: as §1

Lovo = test: In vitro cytotoxicity, IC50 by MTT method, Lovo; type: cell-based; conditions: Homo sapiens; Lovo cell strain; read-out: IC50 Lovo
Procedure, shortened: as §1

NIH3T3 = test: In vitro cytotoxicity, IC50 by MTT method, NIH3T3; type: cell-based; conditions: Mus musculus; NIH3T3 cell strain; read-out: IC50 NIH3T3
Procedure, shortened: as §1

Kunming mice = conditions: single i.p.
Description: (§2) Five grades of dosages for each sample according to the results of the preliminary test, each dosage being 0.8 larger than the previous one
(§3) During the experiment, each sample was added a small amount of Tween-80 to facilitate dissolution after the sample was weighed, and then 0.5% CMC-Na solution was gradually added to achieve the desired concentration. The experimental volume was 0.5 ml/20 g mouse.
(§4) Single injection via intraperitoneal (i.p.) to different groups mice.
(§5) Kunming mice were divided into different groups randomly according to their sex. The medicament was intraperitoneally administered to each group of mice according to the dosage setting. After the administration of the medicaments, mice were observed continuously for the first 2 h for any gross behavioral changes and deaths. Dead animals were dissected and examined for any possible organ damage. […] Conditions of animals died within two week were recorded. After two weeks, all survived animals were sacrificed and checked macroscopically for possible damage to the heart, liver, kidneys and so on. Viscera that had substantive pathological changes were pathologically examined.

Lewis lung cancer = conditions: for Body weight of the animals, end, First time / Body weight of the animals, end, Second time: ip × 10qd
S180 sarcoma = conditions: S180 sarcoma; for Body weight of the animals, beginning, First time / Body weight of the animals, end, First time / Inhibition rate, First time / Weight of the tumor X ± SD, First time / Body weight of the animals, beginning, Second time / Body weight of the animals, end, Second time / Inhibition rate, Second time: ip × 10qd
in vivo = conditions: both, mouse, ip
Description: as §2, §3, §4, §5

[1] = Lewis lung cancer, Dosage 50 (mg/ml)
[2] = Lewis lung cancer, Dosage 50, ip × 10qd
[3] = Lewis lung cancer, Dosage 100 (mg/ml)
[4] = Lewis lung cancer, Dosage 100, ip × 10qd
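Throughout, for Anti-tumor activity compared with harmine (compound 1): mice implanted subcutaneously in the axilla with Lewis lung tumor cells, treated starting the following day, killed roughly three weeks after implantation.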
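Throughout, for Death rate: acute toxicity in Kunming mice grouped by sex, one intraperitoneal dose at five graded levels in Tween-80 plus 0.5% CMC-Na, deaths monitored over two weeks.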
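Throughout, for Inhibition rate (%) Lewis cancer: mice implanted subcutaneously in the axilla with Lewis lung tumor cells, treated starting the following day, killed roughly three weeks after implantation.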
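Throughout, for MTD: acute toxicity in Kunming mice grouped by sex, one intraperitoneal dose at five graded levels in Tween-80 plus 0.5% CMC-Na, deaths monitored over two weeks.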

## CCOC(=O)Nc1cc2c3ccccc3n(Cc3ccccc3)c2cn1 [Compound 55, 3-[(ethoxycarbonyl)amino]-9-benzyl-β-carboline]
HepG2
  IC50: > 3000 µM
PLA-801
  IC50: 520 µM
Bel-7402
  IC50: 2440 µM
BGC-823
  IC50: > 3000 µM
Hela
  IC50: > 3000 µM
Lovo
  IC50: 2130 µM
NIH3T3
  IC50: 1790 µM
Kunming mice; 50% male 50% female mice, 240 mg/kg
  Death rate: 0
Kunming mice; 50% male 50% female mice, 300 mg/kg
  Death rate: 50
Kunming mice; female mice, 240 mg/kg
  Death rate: 0
Kunming mice; female mice, 300 mg/kg
  Death rate: 60
Kunming mice; male mice, 240 mg/kg
  Death rate: 0
Kunming mice; male mice, 300 mg/kg
  Death rate: 40
Lewis lung cancer; Lewis lung cancer in mice, among 22 compounds tested
  Anti-tumor activity compared with harmine (compound 1): a little worse than or equivalent to that of harmines
Lewis lung cancer; [1]
  Body weight of the animals, end, First time: 23.8 g
  Body weight of the animals, end, Second time: 24.5 g
Lewis lung cancer; [2]
  Body weight of the animals, beginning, First time: 18.7 g
  Inhibition rate, First time: 21.91%
  Weight of the tumor X ± SD, First time: 1.96 ± 0.12 g
  Body weight of the animals, beginning, Second time: 19.6 g
  Inhibition rate, Second time: 24.58%
  Weight of the tumor X ± SD, Second time: 1.78 ± 0.19 g
Lewis lung cancer; [3]
  Body weight of the animals, end, First time: 23.5 g
  Body weight of the animals, end, Second time: 23.9 g
Lewis lung cancer; [4]
  Body weight of the animals, beginning, First time: 19.1 g
  Inhibition rate, First time: 29.88%
  Weight of the tumor X ± SD, First time: 1.76 ± 0.10 g
  Body weight of the animals, beginning, Second time: 19.7 g
  Inhibition rate, Second time: 30.93%
  Weight of the tumor X ± SD, Second time: 1.63 ± 0.18 g
Lewis lung cancer; comparison table 43, in vivo, Lewis lung cancer
  Inhibition rate (%) Lewis cancer: 30.93%
S180 sarcoma; Dosage 50 (mg/ml)
  Body weight of the animals, beginning, First time: 19.8 g
  Body weight of the animals, end, First time: 27.0 g
  Inhibition rate, First time: 23.51%
  Weight of the tumor X ± SD, First time: 2.18 ± 0.23 g
  Body weight of the animals, beginning, Second time: 20.9 g
  Body weight of the animals, end, Second time: 24.8 g
  Inhibition rate, Second time: 20.00%
S180 sarcoma; Dosage 50, ip × 10qd
  Weight of the tumor X ± SD, Second time: 2.28 ± 0.18 g
S180 sarcoma; Dosage 100 (mg/ml)
  Body weight of the animals, beginning, First time: 19.4 g
  Body weight of the animals, end, First time: 26.7 g
  Inhibition rate, First time: 29.12%
  Weight of the tumor X ± SD, First time: 2.02 ± 0.22 g
  Body weight of the animals, beginning, Second time: 20.3 g
  Body weight of the animals, end, Second time: 24.9 g
  Inhibition rate, Second time: 28.07%
S180 sarcoma; Dosage 100, ip × 10qd
  Weight of the tumor X ± SD, Second time: 2.05 ± 0.17 g
S180 sarcoma; comparison table 43, in vivo
  Inhibition rate (%) S180 sarcomata: 29.12%
In vivo
  MTD at 2 weeks: 240 mg/kg
